Where two headings read alike, the source gives them in different places.
How the values were obtained:
P. berghei ANKA = assay type: in vivo, Swiss Webster mice; conditions: 2DG 200 mg/kg
Procedure: (§1) Groups of five female Swiss-Webster mice were injected intraperitoneally (i.p.) with 10^3 luciferase-expressing P. berghei ANKA parasites ([Franke-Fayard et al., 2008]). Forty-eight hours post infection, mice were injected i.p. daily for five days with either 200µL of 2% methylcellulose/0.5% Tween80, 40mg/kg chloroquine, 100mg/kg HEX, 30mg/kg POM-HEX, or 5mg/kg POM-SF. Enolase inhibitors dosing were selected as approximately 3-fold lower than the maximum acutely tolerated dose for each compound by i.p. injection. Day 7 post-infection, mice were injected with 150mg/kg D-luciferin potassium salt in PBS (GoldBio) and imaged on an IVIS 100 and parasite burden assessed (Xenogen LivingImage).
The glucose mimetic 2-DG and enolase inhibitors POM-HEX, and HEX were evaluated in the P. berghei mouse model of cerebral malarial, as previously described ([Wang et al., 2018]). Briefly, in addition to groups of mice (n = 5) dosed as described above for POM-HEX and HEX, 2-DG was administered to an additional group (n = 5) at 200mg/kg twice daily and all were monitored for survival, parasitemia (blood smear Giemsa), and clinical signs of cerebral malaria (paralysis, deviation of the head, ataxia, convulsions, and coma) over 15 days.

P. falciparum strain 3D7 = assay: Plasmodium falciparum growth inhibition assay (Picogreen DNA content, three-day incubation); assay type: cell-based; conditions: for S.I. + pyruvate (Supplemental Table 4): MetHb EC50 / parasite EC50, with pyruvate; for S.I. - pyruvate (Supplemental Table 4): MetHb EC50 / parasite EC50, without pyruvate; for S.I. Fold Change (Supplemental Table 4): change in S.I. with versus without pyruvate
Procedure: (§2) Banked blood (Saint Louis Children’s Hospital) and fresh blood [healthy donors] was washed and stored at 50% hematocrit at 4°C up to 1 month past the clinical expiration date and collection date, respectively. Parasite strains provided by the Malaria Research and Reference Reagent Resource Center (MR4) as follows: 3D7 (MRA-102); K1 (MRA-159); D10 (MRA-201); and IPC-5202 (MRA-1240). Unless indicated, erythrocytes were cultured as previously described at 2% hematocrit in complete media (incomplete media supplemented with 27mM sodium bicarbonate, 11mM glucose, 5mM HEPES, 1mM sodium pyruvate, 0.37mM hypoxanthine, 0.01mM thymidine, 10µg/mL gentamicin, and 0.5% Albumax I (Thermo-Fisher) under 5% O2/5% CO2/90% N2 atmosphere at 37°C ([Guggisberg et al., 2014]).
(§3) Asynchronous cultures diluted to 1% parasitemia in 100μL wells were subjected to drug dilutions, solvent controls, and untreated uninfected erythrocyte controls in technical duplicates. Following a three-day incubation, DNA content was quantified using Picogreen (Life Technologies), as previously described ([Corbett et al., 2004]). Half-maximal effective concentrations (EC50) were determined from nonlinear regression of three biological replicates (GraphPad Prism).

human erythrocytes = assay: Detection and quantification of MetHb formation in cultured erythrocytes; assay type: cell-based; conditions: MetHb formation, 500 = highest concentration tested
Procedure: as §2
MetHb was detected by measuring absorbance in the 630-640nm range, which is specific from other hemoglobin subforms (oxyhemoglobin, deoxyhemoglobin, and carboxyhemoglobin). Supernatants were removed and erythrocyte pellets were fully lysed and diluted, as described above. The absorption peak for oxyhemoglobin (575nm) and MetHb (630nm) were measured and the EC50 of MetHb formation was determined using non-linear regression analysis (GraphPad Prism).

P. falciparum = test system: P. falciparum; parameters: method as in Vennerstrom et al., 1999; Phillips et al., 2015; conditions: ref Vennerstrom et al., 1999; Phillips et al., 2015; read-out: EC50, in vitro potency of other antimalarial compounds; cited from earlier work
[1] = test system: P. falciparum K1 (chloroquine and sulfadoxine-pyrimethamine resistant); assay: Plasmodium falciparum growth inhibition assay, drug-resistant line K1; assay type: cell-based; conditions: K1, chloroquine and sulfadoxine-pyrimethamine resistant, means ± s.e.m, read-out: EC50 (nM), P. falciparum K1
Procedure: (§4) Banked blood (Saint Louis Children’s Hospital) and fresh blood [healthy donors] was washed and stored at 50% hematocrit at 4°C up to 1 month past the clinical expiration date and collection date, respectively. Parasite strains provided by the Malaria Research and Reference Reagent Resource Center (MR4) as follows: 3D7 (MRA-102); K1 (MRA-159); D10 (MRA-201); and IPC-5202 (MRA-1240). […]
as §3, with “Prism). […]” for “Prism).”
(§5) Supplemental Table 5. […] Half-maximal inhibitor concentrations (EC50s) were determined for drug resistant malaria parasites and compared to the sensitive 3D7 strain. The respective EC50s are calculated from each of the independent biological replicates using a non-linear regression of the log of the inhibitor concentration with data from each technical replicate normalized to maximal and minimal growth using the software package GraphPad Prism. […]
(§6) means ± s.e.m calculated from three biological replicates.

[2] = test system: luciferase-expressing P. berghei ANKA parasites; assay: In vivo efficacy against blood stage parasite burden (luciferase imaging); parameters: species or system Swiss-Webster mice; conditions: i.p. daily for five days; 30mg/kg POM-HEX, 5mg/kg POM-SF
Procedure: as §1

[3] = test system: P. falciparum IPC-5202 (chloroquine and artemisinin resistant); assay: Plasmodium falciparum growth inhibition assay, drug-resistant line IPC-5202; assay type: cell-based; conditions: chloroquine and artemisinin resistant, means ± s.e.m, read-out: EC50 (nM), P. falciparum IPC-5202
Procedure: as §4
as §3, with “Prism). […]” for “Prism).”
as §5, §6

[4] = test system: P. falciparum D10 (mefloquine resistant); assay: Plasmodium falciparum growth inhibition assay, drug-resistant line D10; assay type: cell-based; conditions: D10, mefloquine resistant, means ± s.e.m, read-out: EC50 (nM), P. falciparum D10
Procedure: as §4
as §3, with “Prism). […]” for “Prism).”
as §5, §6

[5] = P. falciparum growth, with pyruvate, read-out: Parasite EC50 + pyruvate (Supplemental Table 4)
[6] = P. falciparum growth, without pyruvate, 500 = highest concentration tested, read-out: Parasite EC50 - pyruvate (Supplemental Table 4)
[7] = with pyruvate, read-out: MetHb EC50 + pyruvate (Supplemental Table 4)
[8] = without pyruvate, read-out: MetHb EC50 - pyruvate (Supplemental Table 4)

Structure (SMILES) | S.I. + pyruvate (Supplemental Table 4) (P. falciparum strain 3D7) | S.I. - pyruvate (Supplemental Table 4) (P. falciparum strain 3D7) | EC50 (P. falciparum strain 3D7; [5]) | EC50 (P. falciparum strain 3D7; [6]) | S.I. Fold Change (Supplemental Table 4) (P. falciparum strain 3D7) | EC50 (human erythrocytes; [7]) | EC50 (human erythrocytes; [8]) | further results
O=CC[C@@H](O)[C@H](O)[C@H](O)CO [Compound 2-DG, 2-deoxyglucose, reference compound] | – | – | – | – | – | – | – | effect on clinical score, overall survival, cerebral malaria (in words) (P. berghei ANKA; POM-HEX 30 mg/kg): did not improve; parasitemia (P. berghei ANKA; d4, blood smear Giemsa, treated from day 2, HEX 100 mg/kg, control 7.8±3.3%): 13.3±3.9%
CC(C)OC(=O)OCOP(=O)(OCOC(=O)OC(C)C)C1CCCN(O)C1=O (centres unmarked) [Compound J52] | 0.3 | 0.3 | 1600 ± 4000 nM | 2900 ± 400 nM | 1.2 | 0.49 ± 0.02 µM | 0.77 ± 0.04 µM | –
Cc1cc(Nc2ccc(S(F)(F)(F)(F)F)cc2)n2nc(C(C)(F)F)nc2n1 [DSM265] | – | – | – | – | – | – | – | EC50 (P. falciparum): 0.053 µM
O=C1C(P(=O)(O)O)CCN1O (centres unmarked) [DeoxySF-2312] | 16.7 | 6.3 | 30000 ± 9700 nM | 80000 ± 2000 nM | 2.7 | > 500 µM | > 500 µM | selectivity for antiparasitic activity over erythrocyte toxicity (in words) (P. falciparum strain 3D7; parasite growth versus MetHb formation): notably selective
CC1(P(=O)(O)O)CC(O)N(O)C1=O (centres unmarked) [MethylSF-2312] | 19.2 | 3.8 | 26000 ± 2900 nM | 130000 ± 3500 nM | 5.1 | > 500 µM | > 500 µM | –
O=C1C(P2(=O)NCCCO2)CCCN1O (centres unmarked) [PKM J45] | 5.3 | 14.3 | 94000 ± 4700 nM | 35000 ± 3100 nM | 0.4 | > 500 µM | > 500 µM | –
CC(C)(C)C(=O)OCOP(=O)(OCOC(=O)C(C)(C)C)C1CC(O)N(O)C1=O (centres unmarked) [POM-SF] | 1.9 | 0.1 | – | – | 13.6 | – | – | EC50 [1]: 361 ± 34 nM; effect on parasite burden (in words) [2]: does not forestall a lethal parasite burden; EC50 (P. falciparum strain 3D7; Plasmodium falciparum, 3D7, 72 h, P. falciparum growth, presence of 1mM pyruvate, mean ± s.e.m., read-out: Parasite EC50 + pyruvate): 250 ± 10 nM; EC50 (P. falciparum strain 3D7; Plasmodium falciparum, 3D7, P. falciparum growth, absence of 1mM pyruvate, mean ± s.e.m., 500 = highest concentration tested, EC50 not resolved, read-out: Parasite EC50 - pyruvate): 710 ± 40 nM; EC50 (P. falciparum strain 3D7; Plasmodium falciparum, 3D7, means ± s.e.m, three biological replicates, read-out: EC50 (nM), P. falciparum 3D7 (pan-sensitive)): 185 ± 18 nM; T.I. Fold change (P. falciparum strain 3D7; change in T.I. with versus without 1mM pyruvate): 13.6; T.I. + pyruvate (P. falciparum strain 3D7; therapeutic index = [EC50 for MetHb formation]/[EC50 for parasite growth inhibition], with 1mM pyruvate): 1.9; T.I. - pyruvate (P. falciparum strain 3D7; therapeutic index = [EC50 for MetHb formation]/[EC50 for parasite growth inhibition], without pyruvate): 0.1; EC50 (human erythrocytes; Homo sapiens, Erythrocyte, absence of 1mM pyruvate, mean ± s.e.m., EC50 not resolved, read-out: MetHb EC50 - pyruvate): 0.1 ± 0.002 µM; EC50 (human erythrocytes; Homo sapiens, Erythrocyte, presence of 1mM pyruvate, mean ± s.e.m., EC50 not resolved, read-out: MetHb EC50 + pyruvate): 0.48 ± 0.01 µM; EC50 [3]: 321 ± 11 nM; EC50 [4]: 437 ± 83 nM
CC(C)OC(=O)C(C)NP(=O)(NC(C)C(=O)OC(C)C)C1CCCN(O)C1=O (centres unmarked) [SDR4] | 6.8 | 15.6 | 73000 ± 8700 nM | 32000 ± 2400 nM | 0.4 | > 500 µM | > 500 µM | –
CC(C)OC(=O)C(C)NP(=O)(Oc1ccccc1)C1CCCN(O)C1=O (centres unmarked) [SDR6] | 8.3 | 10.4 | 60000 ± 13000 nM | 48000 ± 2800 nM | 0.8 | > 500 µM | > 500 µM | –
CC(=O)ON1CCCC(P(=O)(OCOC(=O)C(C)(C)C)OCOC(=O)C(C)(C)C)C1=O (centres unmarked) [SDR23] | 1.6 | 0.6 | 1600 ± 110 nM | 2100 ± 250 nM | 2.5 | 2.5 ± 0.34 µM | 1.3 ± 0.07 µM | –
O=C1C(P(=O)(O)O)CC(O)N1O (centres unmarked) [SF-2312, reference compound] | 18.5 | 2.8 | 27000 ± 2000 nM | 180000 ± 9300 nM | 6.6 | > 500 µM | > 500 µM | EC50 (P. falciparum strain 3D7; asexual P. falciparum, phosphonates, read-out: half maximal effective concentrations (EC50s), parasite growth): > 15000 nM
COc1cc(C)c2c(Oc3cccc(C(F)(F)F)c3)c(OC)cc(NC(C)CCCN)c2n1 (centres unmarked) [tafenoquine] | – | – | – | – | – | – | – | EC50 (P. falciparum): 0.436 µM

— paper PMC8482815, “Targeting Host Glycolysis as a Strategy for Antimalarial Development” (Frontiers in Cellular and Infection Microbiology, 2021)
